Results as given in US7906620B2, “Tumor associated antigen, peptides thereof, and use of same as anti-tumor vaccines” (Yeda Research and Development Co. Ltd., priority 2002, dated 2011).

Assays:
[1] = test system: RMAS-HHD-B7.1 target cells; assay: Immunogenicity in HHD mice after immunization with dendritic cells pulsed with peptide pools; assay type: in vivo; conditions: DCs pulsed with pools of 2-4 peptides; effector-to-target ratio 25:1
Experimental: FIGS. 13A and 13B are graphs showing immunogenicity of PAP- or STEAP-derived peptides in HHD mice. The mice were immunized i.v. one time with 1×10^6 peptide-loaded syngeneic dendritic cells (DCs). The DCs were loaded separately with individual peptides, washed and pooled before immunization. Spleens were removed on day 10, and splenocytes were re-stimulated in vitro by 100 μM PAP-derived (FIG. 13A) or STEAP-derived (FIG. 13B) peptides in OPTIMEM for 2 h at 37° C., 5% CO2, followed by restimulation of lymphocytes for 4 more days in RPMI-HEPES, as described. CTL assays were performed on day 5 with individual PAP-, STEAP-derived peptides loaded on RMAS-HHD-B7.1 as targets. Non-relevant HIV derived peptide-loaded RMAS-HHD-B7.1 cells were used as negative controls. The effector-to-target ratio of 25:1 is shown.
The immunogenicity of the peptides, namely their potential to induce T cell responses, was subsequently examined in an in vivo model. A strain of β2 microglobulin (β2m) HLA-A2.1 Monochain Transgenic, H-2D^b−/−Xβ2m^−/− double knockout mice (HHD mice) was used. Upon vaccination of these mice, a repertoire of human HLA-A2.1 restricted CTLs is produced. The lysis patterns of each of the individual peptides loaded on target cells were first evaluated following immunization with syngeneic dendritic cells pulsed with pools of 2-4 synthetic peptides derived from each examined protein.

PC3-HHD tumors = assay: Adoptive transfer of anti-peptide CTL to CD1 nude mice bearing PC3-HHD tumors; assay type: in vivo; conditions: for complete rejection of tumors: local injection day 7, PAP-3: 35×10^6 lymphocytes (11×10^6 CD8+), STEAP-3: 50×10^6 (3×10^6 CD8+), IL-2; for tumor growth in the other mice: same groups as complete rejection
Excerpt: FIGS. 19A and 19B are graphs showing that adoptively transferred anti-peptide CTL retard tumor growth. HHD derived anti-PAP3 (FIG. 19A) or STEAP-3 (FIG. 19B) were stimulated in vitro and transferred to CD1 nude mice bearing 7 day PC3-HHD tumors (expressing PAP and STEAP) as described. Tumor growth was followed for 38 days.
HHD mice were immunized i.p. 6 times (twice at week) with 10^6 syngeneic dendritic cells pulsed with either PAP-3, STEAP-3 or irrelevant (tyrosinase-derived, HLA-A2.1 binding) peptides. Spleens were removed on day 10, and splenocytes were restimulated in vitro by 100 μM of either PAP-3 or STEAP-3 peptides in OPTIMEM for 2 h at 37° C., 5% CO2, followed by restimulation of lymphocytes for 4 more days in lymphocyte medium (RPMI-1640 supplemented with 25 mM HEPES, 10% heat-inactivated FCS, 0.1 mM non-essential amino acids, 1 mM sodium pyruvate, 2 mM. L-glutamine, 40 microg/ml garamycin and 5×10^−5 M 2-mercaptoethanol). Total lymphocytes were suspended at 10^6/ml and activated with plate-bound anti-CD3 mAb (145-2C11) for 72 h at 37° C. in 5% CO2 in 24-well plates. Activated cells were resuspended at a concentration of 3×10^5/ml lymphocyte medium with IL-2 (100 U/ml) for 3 days, then diluted 1:3 in fresh medium with IL-2 for an additional 4 days. Lymphocytes were harvested, samples were incubated with anti-CD4, anti-CD8 or isotype control mAb (all obtained from Catalog, USA), and analyzed using CellQuest software. Seven to nine CD1 nude mice per group received 4 Gy total body irradiation from a 137CS source, followed by s.c. inoculation with 5×10^6 PC3-HHD13 cells in Matrigel (BD PharMingen, San Diego, Calif.) to initiate tumors. Seven days later, mice were injected locally with 35×10^6 PAP-3 or tyrosinase specific lymphocytes (11×10^6 were CD8+), 50×10^6 STEAP-3 specific lymphocytes (3×10^6 were CD8+) or PBS. IL-2 (1000 U) was injected twice a day for five consecutive days. Tumor size was measured 3 times per week.

Row | Sequence | lysis of peptide-loaded RMAS-HHD-B7.1 target cells [1] | complete rejection of tumors (PC3-HHD tumors) | tumor growth in the other mice (PC3-HHD tumors)
1 | ILLWQPIPV (listed as Homo sapiens) [PAP-3, PAP start position 135] | significant lysis | 4/8 | retarded growth
2 | LLLGTIHAL (listed as Homo sapiens) [STEAP-3, STEAP start position 262] | significant lysis | 2/9 | retarded growth
